Data: US9181172B2, “Rhein conjugates, preparation method thereof and their uses in producing medicines for treating diabetic nephrosis, intestinal adhesion and osteoarthritis” (priority 2005, dated 2015)

Key:
diabetic rats = experiment: Diabetic nephrosis of obese diabetic rats (high-fat high-sugar diet plus STZ); format: in vivo; details: for Urine protein / Kidney weight index (double kidney weight/body weight × 10^4) / Serum total cholesterol / Serum triacylglycerol / Steady blood sugar level / Steady insulin level / Weight / blood sugar: six months, ig 90 mg/kg
Protocol: Animal model of diabetic rats: after one month of high-fat high-sugar diet, the rats (about 180 g) were injected by sub-pathogenic dose (25 mg/kg) of streptozotocin (STZ) to induce the occurrence of diabetes. The model has the characteristics of moderate hyperglycemia, hyperlipidemia and insulin resistance as well as pathological changes of typical diabetic nephrosis.
• 1. Conventional feedstuff control group: distilled water. • 2. Diabetes model group: distilled water. • 3. Rhein lysine diabetes treatment group: a month after STZ injection, rhein lysine complex [prepared with distilled water, intragastric infusion for rats according to 90 mg/kg (0.209 mmol/kg) dose] was administered referred to treatment group 1. • 4. Rhein sodium diabetes treatment group: a month after STZ injection, rhein sodium [prepared with distilled water, intragastric infusion for rats, according to 65 mg/kg (0.212 mmol/kg) dose] was administered, referred to treatment group 2. • 5. Rhein lysine diabetes prevention group: one week after STZ injection, rhein lysine conjugates were administered [prepared with distilled water and intragastric infusion for rats, according to 90 mg/kg (0.209 mmol/kg) dose], referred to prevention group 1. • 6. Rhein sodium diabetes prevention group: one week after STZ injection, rhein sodium were administered [prepared with distilled water and intragastric infusion for rats, according to 65 mg/kg (0.212 mmol/kg ) dose], referred to prevention group 2.

obese hyperglycemia mice = experiment: Body weight and blood glucose of obese hyperglycemia mice; format: in vivo
Protocol: 9-week-old obese mice of hyperglycemia were randomly divided into: rhein sodium group, non-treatment group, rosiglitazone group, rhein lysine high-dose group and low-dose group, each group has 6 mice. Kunming mice of the same age were used as the control group, which were fed by conventional feedstuff with free food and water feeding. Rhein lysine conjugates [the dose is 180 mg/kg (0.418 mmol/kg) and 90 mg/kg (0.209 mmol/kg) for intragastric infusion, prepared with distilled water], dose of the rhein sodium group is 130 mg/kg (0.424 mmol/kg), the mixture was dissolved with distilled water, intragastric administration; rosiglitazone group (the dose is 4 mg/kg), the mixture was dissolved with distilled water, intragastric administration, and the rats of the other two groups were administered with the same volume of distilled water, once a day, 12 weeks of administration in succession. The animals' body weight and blood sugar were measured regularly, and statistical analysis was conducted.

[1] = test system: obese rats of high-fat and high-sugar diet; experiment: Body weight of obese rats of high-fat and high-sugar diet; format: in vivo
From the text: Group A: conventional diet, 4 weeks later, started to carry on intragastric administration, and the same volume of distilled water as the control, once daily, three weeks in succession.
Group B: high-fat high-sugar diet, 4 weeks later, started to carry on intragastric administration, and the same volume of distilled water as the model control, once daily, three weeks in succession.
Group C: high-fat high-sugar diet, 4 weeks later, started to carry on intragastric administration of rhein lysine conjugates [dose: 90 mg/kg (0.209 mmol/kg), prepared by distilled water], once daily, three weeks in succession.
Group D: high-fat high-sugar diet, 4 weeks later, started to carry on intragastric administration of rhein lysine conjugates [dose: 45 mg/kg (0.105 mmol/kg), prepared by distilled water], once daily, three weeks in succession.
Group E: high-fat high-sugar diet, 4 weeks later, started to carry on intragastric administration of rhein sodium [dose: 65 mg/kg (0.212 mmol/kg), prepared by distilled water], once daily, three weeks in succession.

[2] = Comparison of metal salts or conjugates hydro-acupuncture (water-carrier) preparation: pH value and clarity; format: physicochemical; details: 2.0 mg/ml in water, as dissolved
Protocol: Proper amount of different rhein or rhein-containing effective part metal salts or conjugates were put into a 10 ml volumetric flask, added with water, shaken and dissolved for constant volume, and then a water-carrier preparation was obtained. Rhein or rhein-containing effective part sodium salts or sylvan preparation are adjusted to the original pH with diluted hydrochloric acid and the results were shown in Table 4.

mice [3] = experiment: Xylene-induced swelling of auricle in mice; format: in vivo; details: ig 200 mg/kg, 3 days
Protocol: Fifty male Kunming mice were selected, weighing 18-22 g each, and randomly divided into five groups, namely, model control group, aspirin group, rhein sodium group, rhein glucosamine large dose group and low dose groups. Each group had 10 mice respectively. The mice were administered with medicines by intragastric administration every day, for 0.2 ml/10 g body weight. The mice of the model control group were administered with equal volume of physiological saline, once every day, continuously administration for 3 days. After 60 minutes of the final administration, carried on test according to the method in the literature [Xu Shuyun, Methodology in Pharmacological Experiment (the 3rd version): 911]. The sweeling degree of auricle was calculated and statistical analysis was conducted.

mice [4] = experiment: Acetic acid-induced writhing response in mice; format: in vivo; details: ig 200 mg/kg, 12 days
Protocol: Fifty Kunming mice, half male and half female, weighing 18-22 g each, were selected and randomly divided into five groups, namely, model control group, aspirin group, rhein sodium group, rhein glucosamine large dose group and small dose group, 10 mice for each group. The mice were administered with medicine by intragastric administration every day, 0.2 ml/10 g body weight, once every day, and administered for 12 days in succession. After the final administration of medicines, 30 minutes later, test was carried on according to the methods in the literature [Xu Shuyun, Methodology in Pharmacological Experiment (the 1st version): 882]. The inhibiting rate for writhing response was calculated.

mice [5] = experiment: Immune function in mice (clearance index, phagocytic index); format: in vivo; details: ig 20 mg/kg, 3 days
Protocol: Fifty Kunming mice, half male and half female, weighing 18-22 g each were selected and randomly divided into five groups, namely, model control group, cyclophosphamide group, rhein sodium group, rhein glucosamine large dose group and small dose group, 10 mice for each group. The mice were administered with medicines by intragastric administration, 0.2 ml/10 g body weight, once every day and administered for 3 days in succession. After the mice were administered with medicines, 30 minutes later, test was carried on according to the method in the literature [Xu Shuyun, Methodology in Pharmacological Experiment (the 3rd version): 934]. The […] and corrected phagocytic index α were calculated, and t-test was conducted for statistical analysis.

rats = experiment: Intestinal adhesion in rats; format: in vivo; details: 10 mg/kg once every two days, 7th day
Protocol: Rats were fasted for 12 h and models were built according to the methods in the literature [Xu Shuyun, Methodology in Pharmacological Experiment (the 3rd version): 1335]. The rats were randomly divided into five groups, namely, model control group, dexamethasone group, rhein sodium group, rhein glucosamine large dose group and low dose group. Each group included 12 rats. […] The rats of the model group were administered with the same volume of NS, while the rats of the positive control group were administered with dexamethasone, administered once every two days, dose: 10 mg/kg. The administration volume was the same as the treatment group. The rats were killed on the 7th day and carried on laparotomy. Adhesion degree was classified and scored respectively. The classification and score of the observed index-adhesion degree can refer to the five-grade classification method prepared by Nair, and determine the classification standard, see Schedule 13. Intestinal adhesion classification adopts Ridit analysis. The test results are as follows (Table 14): […]

mice [6] = experiment: Intestinal propulsion in mice; format: in vivo; details: dosage 9 mg/kg, intravenous injection
Protocol: Fifty mice, male, weighting from 18 to 22 g, were randomly divided into five groups, namely, model control group, domperidone group, rhein sodium group, rhein glucosamine large dose group and low dose group.
Each group has 10 mice respectively. The mice were fasted, but water was not prohibited, and then administered with medicines by intravenous injection. After that, tests were carried on immediately according to the methods in the literature[Xu Shuyun, Methodology in Pharmacological Experiment (the 3rd version): 1313]. The intestinal propulsive rates were calculated, and t test was used for the intergroup comparison.

[7] = prevention group and treatment group, six months after administration
[8] = baseline of high-dose group, ig 180 mg/kg once a day
[9] = baseline of low-dose group, ig 90 mg/kg once a day
[10] = baseline of group given ig 4 mg/kg once a day

Compound: NCCCCC(N)C(=O)O.O=C(O)c1cc(O)c2c(c1)C(=O)c1cccc(O)c1C2=O [Rhein lysine conjugate, Rhein Lysine Conjugate]
- kidney weight and kidney weight index compared with the model group (diabetic rats; [7]): significantly lower
- serum cholesterol and triglyceride compared with the model group (diabetic rats; [7]): significantly lower
- urine protein content compared with the model group (diabetic rats; [7]): significantly lower
- blood sugar level compared with the model group (diabetic rats; prevention group, six months after administration): significantly lower
- Urine protein (diabetic rats; preventive administration from one week after STZ): 10.23 ± 3.34 mg/24 h
- Kidney weight index (double kidney weight/body weight × 10^4) (diabetic rats; preventive administration): 5.26 ± 0.74
- Serum total cholesterol (diabetic rats; preventive administration): 2.78 ± 0.21 mM
- Serum triacylglycerol (diabetic rats; preventive administration): 1.56 ± 0.32
- Steady blood sugar level (diabetic rats; preventive administration): 6.2 ± 0.4 mmol/L
- Steady insulin level (diabetic rats; preventive administration): 71.6 ± 3.5 uU/ml
- Weight (diabetic rats; preventive administration): 248 ± 13 g
- blood sugar (diabetic rats; preventive administration): 14.98 ± 5.9 mmol/L
- Urine protein (diabetic rats; treatment from a month after STZ): 15.12 ± 5.68 mg/24 h
- blood sugar level compared with the model group (diabetic rats; treatment group, six months after administration): no significant difference
- Kidney weight index (double kidney weight/body weight × 10^4) (diabetic rats; treatment): 6.7 ± 0.78
- Serum total cholesterol (diabetic rats; treatment): 3.56 ± 0.71 mM
- Serum triacylglycerol (diabetic rats; treatment): 1.63 ± 0.39
- Steady blood sugar level (diabetic rats; treatment): 5.6 ± 0.9 mmol/L
- Steady insulin level (diabetic rats; treatment): 80 ± 3.5 uU/ml
- Weight (diabetic rats; treatment): 228 ± 15 g
- blood sugar (diabetic rats; treatment): 17.4 ± 5.6 mmol/L
- weight and blood sugar compared with the non-treatment group (obese hyperglycemia mice; 9 weeks after administration): extremely significant difference
- Blood glucose prior to administration (obese hyperglycemia mice; [8]): 29.2 ± 3.6 mmol/L
- Body weight prior to administration (obese hyperglycemia mice; [8]): 29.2 ± 1.6 g
- Blood glucose prior to administration (obese hyperglycemia mice; [9]): 28.7 ± 5.3 mmol/L
- Body weight prior to administration (obese hyperglycemia mice; [9]): 28.8 ± 1.6 g
- Blood glucose 6 w after administration (obese hyperglycemia mice; ig 90 mg/kg once a day): 31.4 ± 4.9 mmol/L
- Blood glucose 9 w after administration (obese hyperglycemia mice; ig 90 mg/kg once a day): 33.7 ± 5.6 mmol/L
- Blood glucose 12 w after administration (obese hyperglycemia mice; ig 90 mg/kg once a day): 30.4 ± 4.2 mmol/L
- Body weight 6 w after administration (obese hyperglycemia mice; ig 90 mg/kg once a day): 35.7 ± 1.7 g
- Body weight 9 w after administration (obese hyperglycemia mice; ig 90 mg/kg once a day): 39.3 ± 1.2 g
- Body weight 12 w after administration (obese hyperglycemia mice; ig 90 mg/kg once a day): 41.3 ± 1.6 g
- Blood glucose 6 w after administration (obese hyperglycemia mice; ig 180 mg/kg once a day): 30.9 ± 4.2 mmol/L
- Blood glucose 9 w after administration (obese hyperglycemia mice; ig 180 mg/kg once a day): 30.2 ± 5.3 mmol/L
- Blood glucose 12 w after administration (obese hyperglycemia mice; ig 180 mg/kg once a day): 28.1 ± 5.4 mmol/L
- Body weight 6 w after administration (obese hyperglycemia mice; ig 180 mg/kg once a day): 34.9 ± 1.6 g
- Body weight 9 w after administration (obese hyperglycemia mice; ig 180 mg/kg once a day): 38.2 ± 1.3 g
- Body weight 12 w after administration (obese hyperglycemia mice; ig 180 mg/kg once a day): 40.1 ± 1.4 g
- The body weight increased 7 weeks after high-sugar high-fat diet ([1]; Group C, after three weeks ig 90 mg/kg once daily): 16.8 ± 4.8 g
- The body weight increased 4 weeks after high-sugar high-fat diet ([1]; Group C, before start of ig 90 mg/kg): 15.3 ± 3.8 g
- The body weight increased 7 weeks after high-sugar high-fat diet ([1]; Group D, after three weeks ig 45 mg/kg once daily): 17.7 ± 4.6 g
- The body weight increased 4 weeks after high-sugar high-fat diet ([1]; Group D, before start of ig 45 mg/kg): 16.1 ± 4.2 g

Compound: O=C([O-])c1cc(O)c2c(c1)C(=O)c1cccc(O)c1C2=O.[K+] [Rhein sylvin]
- PH value [2]: 9-10
- clarity [2]: clear

Compound: CN(CCOc1ccc(CC2SC(=O)NC2=O)cc1)c1ccccn1 (centres unmarked) [Rosiglitazone]
- Blood glucose prior to administration (obese hyperglycemia mice; [10]): 29.3 ± 4.7 mmol/L
- Body weight prior to administration (obese hyperglycemia mice; [10]): 29.3 ± 1.7 g
- Blood glucose 6 w after administration (obese hyperglycemia mice; ig 4 mg/kg once a day): 31.1 ± 4.9 mmol/L
- Blood glucose 9 w after administration (obese hyperglycemia mice; ig 4 mg/kg once a day): 30.5 ± 4.5 mmol/L
- Blood glucose 12 w after administration (obese hyperglycemia mice; ig 4 mg/kg once a day): 27.9 ± 3.8 mmol/L
- Body weight 6 w after administration (obese hyperglycemia mice; ig 4 mg/kg once a day): 42.1 ± 1.9 g
- Body weight 9 w after administration (obese hyperglycemia mice; ig 4 mg/kg once a day): 48.2 ± 1.5 g
- Body weight 12 w after administration (obese hyperglycemia mice; ig 4 mg/kg once a day): 50.1 ± 1.8 g

Compound: CC(=O)Oc1ccccc1C(=O)O [aspirin]
- inhibition rate (mice [3]): 48.9%
- swelling degree of auricle (mice [3]): 9.1 ± 1.8 mg
- Inhibiting rate (mice [4]): 65.6%
- Times of writhing (mice [4]): 11.1 ± 6.3 per/20 min

Compound: O=P1(N(CCCl)CCCl)NCCCO1 (centres unmarked) [cyclophosphamide]
- Clearance index (k) (mice [5]): 0.0192 ± 0.0102
- Phagocytic index (α) (mice [5]): 4.0208 ± 0.6698

Compound: C[C@@H]1C[C@H]2[C@@H]3CCC4=CC(=O)C=C[C@]4(C)[C@@]3(F)[C@@H](O)C[C@]2(C)[C@@]1(O)C(=O)CO [dexamethasone]
- Rating of adhesion degree 0 (rats; number of 12 rats with completely no adhesion): 1
- Rating of adhesion degree III (rats; number of 12 rats with more than two adhering zones): 1
- Rating of adhesion degree I (rats; number of 12 rats with one adhering zone): 2
- Rating of adhesion degree IV (rats; number of 12 rats with organs adhering to abdominal wall directly): 0
- Rating of adhesion degree II (rats; number of 12 rats with two adhering zones): 8

Compound: O=c1[nH]c2ccccc2n1CCCN1CCC(n2c(=O)[nH]c3cc(Cl)ccc32)CC1 [domperidone]
- Propulsive rate (mice [6]): 55.42 ± 9.6 %

Compound: C[N+](C)(C)CC(O)CC(=O)[O-].O=C(O)c1cc(O)c2c(c1)C(=O)c1cccc(O)c1C2=O [rhein carnitine conjugate, Rhein Carnitine Conjugate]
- PH value [2]: 6-7
- clarity [2]: clear

Compound: CNC[C@H](O)[C@@H](O)[C@H](O)[C@H](O)CO.O=C(O)c1cc(O)c2c(c1)C(=O)c1cccc(O)c1C2=O [rhein meglumine conjugate, Rhein Meglumine Conjugate]
- PH value [2]: 6-7
- clarity [2]: clear
